Results: patent publication US20220340875A1, “METHODS OF CULTURING AND/OR EXPANDING STEM CELLS AND/OR LINEAGE COMMITTED PROGENITOR CELLS USING AMIDO COMPOUNDS” (IDEAYA BIOSCIENCES, INC., priority 2018, published 2022)

The compounds below were run against T1, hAhR (Homo sapiens, UniProt P35869) (assay: AhR DRE-luciferase reporter transcriptional assay, antagonist mode (TCDD-induced)). Settings: HEPG2 DRE-Luc cells, 3 nM TCDD, 24 hour incubation, relative IC50.
T1 construct: Stably integrated DRE-luciferase cell lines were generated by transducing the both cell lines with Cignal XRE luciferase reporter (Qiagen) lentiviral particles; endogenous in cells
T1 sequence (P35869 11-848): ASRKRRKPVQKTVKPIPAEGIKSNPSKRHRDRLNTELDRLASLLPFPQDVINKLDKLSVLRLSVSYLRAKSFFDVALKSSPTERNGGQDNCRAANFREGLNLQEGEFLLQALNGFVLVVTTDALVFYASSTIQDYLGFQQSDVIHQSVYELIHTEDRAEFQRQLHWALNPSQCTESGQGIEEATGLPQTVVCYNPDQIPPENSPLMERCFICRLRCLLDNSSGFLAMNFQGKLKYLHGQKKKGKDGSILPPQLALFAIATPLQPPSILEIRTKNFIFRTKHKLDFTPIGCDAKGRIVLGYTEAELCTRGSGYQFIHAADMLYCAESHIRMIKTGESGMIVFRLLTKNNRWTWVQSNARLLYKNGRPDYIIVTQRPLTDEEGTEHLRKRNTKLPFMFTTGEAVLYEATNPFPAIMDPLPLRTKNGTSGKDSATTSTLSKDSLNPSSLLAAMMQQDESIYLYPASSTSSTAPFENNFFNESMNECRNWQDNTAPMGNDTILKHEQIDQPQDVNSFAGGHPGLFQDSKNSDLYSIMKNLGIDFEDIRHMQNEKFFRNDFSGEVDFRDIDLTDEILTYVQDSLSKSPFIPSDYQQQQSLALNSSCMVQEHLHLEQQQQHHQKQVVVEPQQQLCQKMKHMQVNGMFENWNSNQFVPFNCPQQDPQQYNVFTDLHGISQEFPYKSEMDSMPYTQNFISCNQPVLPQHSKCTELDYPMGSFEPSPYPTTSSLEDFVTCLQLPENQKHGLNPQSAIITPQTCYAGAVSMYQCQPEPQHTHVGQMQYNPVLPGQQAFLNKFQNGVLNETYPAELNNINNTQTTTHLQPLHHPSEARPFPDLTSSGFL
Assay type: cell-based
Method in brief: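 HepG2 cells carrying a stably integrated DRE-luciferase reporter, in OptiMEM with 0.5% FBS; semi-log compound doses added with 3 nM TCDD, 24 h incubation, firefly luciferase read-out. Percent maximal activity normalised between vehicle ± TCDD; relative IC50 taken as half-reduction between curve plateaus.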

Structure (SMILES)	IC50 [nM]
Cc1cc(-c2ccc3c(ccn3CC(F)(F)F)c2)ccc1NC(=O)c1ccnn1C [Example 088, 1-methyl-N-(2-methyl-4-(1-(2,2,2-trifluoroethyl)-1H-indol-5-yl)phenyl)-1H-pyrazole-5-carboxamide]	1000 to 10000
Cc1cc(-c2ccc3cc(F)ccc3n2)ccc1NC(=O)c1ccno1 [Example 037, N-(4-(6-fluoroquinolin-2-yl)-2-methylphenyl)isoxazole-5-carboxamide]	500 to 1000
Cc1cc(-c2ccc3cc(-c4nnn[nH]4)ccc3n2)ccc1NC(=O)c1ccnn1C [Example 063, N-(4-(6-(1H-tetrazol-5-yl)quinolin-2-yl)-2-methylphenyl)-1-methyl-1H-pyrazole-5-carboxamide]	1000 to 10000
COc1cnccc1C(=O)N(C)c1ccc(-c2ncc3cc(C(F)(F)F)ccc3n2)cc1C [Example 145, 3-Methoxy-N-methyl-N-(2-methyl-4-(6-(trifluoromethyl)quinazolin-2-yl)phenyl)isonicotinamide]	< 200
Cc1cc(-c2ccc3c(C(F)(F)F)cn(C)c3c2)ccc1N(C)C(=O)c1ccnn1C [Example 087, N,1-dimethyl-N-(2-methyl-4-(1-methyl-3-(trifluoromethyl)-1H-indol-6-yl)phenyl)-1H-pyrazole-5-carboxamide]	1000 to 10000
COc1cc(C(=O)Nc2ccc(-c3ncc4cc(C(F)(F)F)ccc4n3)cc2C)ccn1 [Example 142, 2-methoxy-N-(2-methyl-4-(6-(trifluoromethyl)quinazolin-2-yl)phenyl)isonicotinamide]	< 200
Cc1cc(-c2ncc3nc(C(F)(F)F)cc(C)c3n2)ccc1N(C)C(=O)c1ccnn1CC(N)=O [Example 171, 1-(2-amino-2-oxoethyl)-N-methyl-N-(2-methyl-4-(8-methyl-6-(trifluoromethyl)pyrido[3,2-d]pyrimidin-2-yl)phenyl)-1H-pyrazole-5-carboxamide]	200 to 500
Cc1cc(-c2cc(C)c3ccccc3n2)ccc1NC(=O)OC(C)(C)C [Example 015, tert-butyl (2-methyl-4-(4-methylquinolin-2-yl)phenyl)carbamate]	1000 to 10000
Cn1nccc1C(=O)Nc1ccc(-c2ncc3nc(C(F)(F)F)ccc3n2)cc1F [Example 137, N-(2-fluoro-4-(6-(trifluoromethyl)pyrido[3,2-d]pyrimidin-2-yl)phenyl)-1-methyl-1H-pyrazole-5-carboxamide]	< 200
Cc1cc(N(C)C(=O)c2ccnn2C)ccc1-c1ncc2nc(C(F)(F)F)ccc2n1 [Example 187, N,1-dimethyl-N-(3-methyl-4-(6-(trifluoromethyl)pyrido[3,2-d]pyrimidin-2-yl)phenyl)-1H-pyrazole-5-carboxamide]	< 200
Cc1cc(-c2ncc3nc(C(F)(F)F)ccc3n2)ccc1N(C)C(=O)c1ccnn1C [Example 136, N,1-dimethyl-N-(2-methyl-4-(6-(trifluoromethyl)pyrido[3,2-d]pyrimidin-2-yl)phenyl)-1H-pyrazole-5-carboxamide]	< 200
Cc1cc(-c2ccc3c(ccn3C)c2)ccc1NC(=O)c1ccnn1C [Example 083, 1-methyl-N-(2-methyl-4-(1-methyl-1H-indol-5-yl)phenyl)-1H-pyrazole-5-carboxamide]	500 to 1000
Cc1cc(-c2ncc3nc(C(F)(F)F)cc(C)c3n2)ccc1N(C)C(=O)c1ccnn1CCOP(=O)(O)O [Example 194, 2-[5-[methyl([2-methyl-4-[8-methyl-6-(trifluoromethyl)pyrido[3,2-d]pyrimidin-2-yl]phenyl])carbamoyl]-1H-pyrazol-1-yl]ethyl disodium phosphate]	1000 to 10000
C#Cc1ccc2nc(-c3ccc(NC(=O)c4ccnn4C)c(C)c3)ccc2c1 [Example 072, N-(4-(6-ethynylquinolin-2-yl)-2-methylphenyl)-1-methyl-1H-pyrazole-5-carboxamide]	200 to 500
Cc1c(N(C)C(=O)c2ccnn2C)ccc(-c2ncc3nc(C(F)(F)F)cc(C)c3n2)c1F [Example 175, N-(3-fluoro-2-methyl-4-(8-methyl-6-(trifluoromethyl)pyrido[3,2-d]pyrimidin-2-yl)phenyl)-N,1-dimethyl-1H-pyrazole-5-carboxamide]	< 200
